pIC50: −log10 of the molar value.

Sequence of human PTGES (O14684 whole entry): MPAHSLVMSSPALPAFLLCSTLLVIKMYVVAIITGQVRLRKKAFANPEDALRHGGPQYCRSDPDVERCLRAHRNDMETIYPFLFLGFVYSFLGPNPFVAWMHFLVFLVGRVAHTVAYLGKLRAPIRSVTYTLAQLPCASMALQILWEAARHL

The target in this experiment is human PTGES (Homo sapiens (Human), UniProt O14684). The experiment in a line: Human PTGES biochemical enzyme inhibition assay (conversion of PGH2 to PGE2, TR-FRET). Particulars: Enzymatic conversion of PGH2 to PGE2; read-out: Human PTGES IC50. The procedure:
Human PTGES Biochemical Enzyme Inhibition Assay:
PTGES (Microsomal prostaglandin E synthase 1) is an enzyme that converts prostaglandin H2 (PGH2) to prostaglandin E2 (PGE2) in the presence of reduced glutathione (GSH).
Recombinant proteins (human isoforms) of PTGES containing a FLAG tag, expressed in baculovirus infected insect cells (Hi-5) and purified by affinity chromatography was used as enzyme in the assay. Substrate was prostaglandin H2 (Cayman Chemicals).
4 ul of a solution of human PTGES in assay buffer [100 mM sodium phosphate pH 7.2, 2.5 mM Glutathion reduced, 1 mM EDTA, 0.01% BSA, 0.4 mM DTT, 0.15 mM n-dodecylmaltoside] was added to the well containing test compound and incubated for 15-20 minutes to allow binding of the compound to the enzyme prior to the enzymatic reaction. The reaction was started by addition of 1 ul of an ice cold solution containing PGH2 (40 nM in assay buffer resulting in a final concentration of 8 nM PGH2 in the assay). […] The concentration of each isoform of PTGES was adapted to the activity of the respective enzyme preparation to maintain linear reaction properties within the reaction time. […] The reaction was stopped by addition of 1 ul of a solution containing 15 mM SnCl2 and 400 mM KF in water. SnCl2 converts the remaining unstable PGH2 to stable PGF2alpha. Then, 3 ul of the a first detection solution containing PGE2-D2 (Cisbio Bioassays, TR-FRET reagent, diluted according to the manufacturer's recommendation, typically 1:20 in reconstitution buffer) was added. […] The resulting mix was incubated overnight at 4° C. to allow the formation of a complex of PGE2 and the detection reagents. […] Dilution series were made prior to the assay in a 100 fold concentrated form by serial dilution. IC50 values were calculated by 4-Parameter fitting.
In the case of `Cc1c(CCC(=O)O)cccc1NC(=O)C(c1ccc(-c2cncc(C(F)(F)F)c2)cc1F)C1CCCC1` (racemic) [Example 53, (R/S) 3-{3-[(Cyclopentyl{2-fluoro-4-[5-(trifluoromethyl)pyridin-3-yl]phenyl}acetyl)amino]-2-methylphenyl}propanoic acid], the pIC50 is 7.27.

`Cc1c(CCC(=O)O)cccc1NC(=O)C(c1ccc(-c2cncc(C(F)(F)F)c2)cc1)C1CCC1` (racemic) [Example 54, (R/S) 3-{3-[(Cyclobutyl{4-[5-(trifluoromethyl)pyridin-3-yl]phenyl}acetyl)amino]-2-methylphenyl}propanoic acid]: the negative-log IC50 (pIC50) is 7.56. For `CCOc1cncc(-c2ccc(C(C(=O)Nc3cccc(CCC(=O)O)c3C)C3CCC3)cc2)c1` (racemic) [Example 58, (R/S) 3-[3-({Cyclobutyl[4-(5-ethoxypyridin-3-yl)phenyl]acetyl}amino)-2-methylphenyl]propanoic acid], the pIC50 is 6.68. The value for `Cc1cc(-c2ccc(C(C(=O)Nc3cccc(CCC(=O)O)c3C)C3CCC3)cc2)cnc1C` (racemic) [Example 59, (R/S) 3-[3-({Cyclobutyl[4-(5,6-dimethylpyridin-3-yl)phenyl]acetyl}amino)-2-methylphenyl]propanoic acid] was 6.71; that for `Cc1c(CCC(=O)O)cccc1NC(=O)C(c1ccc(-c2cncc(F)c2)cc1)C1CCC1` (racemic) [Example 60, (R/S) 3-[3-({Cyclobutyl[4-(5-fluoropyridin-3-yl)phenyl]acetyl}amino)-2-methylphenyl]propanoic acid] was 6.32; that for `Cc1ncc(-c2ccc(C(C(=O)Nc3cccc(CCC(=O)O)c3C)C3CCC3)cc2)cc1Cl` (racemic) [Example 61, (R/S) 3-[3-({[4-(5-chloro-6-methylpyridin-3-yl)phenyl](cyclobutyl)acetyl}amino)-2-methylphenyl]propanoic acid] was 7.49. Consider `Cc1ncc(-c2ccc(C(C(=O)Nc3cccc(CCC(=O)O)c3C)C3CCC3)cc2)cc1F` (racemic) [Example 62, (R/S) 3-[3-({[4-(5-Fluoro-6-methylpyridin-3-yl)phenyl](cyclobutyl)acetyl}amino)-2-methylphenyl]propanoic acid], for which the negative-log IC50 (pIC50) was 6.83.

On to `Cc1c(CCC(=O)O)cccc1NC(=O)C(c1ccc(-c2cncc(OC(F)F)c2)cc1)C1CCC1` (racemic) [Example 63, (R/S) 3-{3-[(Cyclobutyl{4-[5-(difluoromethoxy)pyridin-3-yl]phenyl}acetyl)amino]-2-methylphenyl}propanoic acid], for which the negative logarithm of the IC50 (pIC50) is 6.99. For the molecule `Cc1cncc(-c2ccc(C(C(=O)Nc3cccc(CCC(=O)O)c3C)C3CCC3)cc2)c1` (racemic) [Example 64, (R/S) 3-[3-({Cyclobutyl[4-(5-methylpyridin-3-yl)phenyl]acetyl}amino)-2-methylphenyl]propanoic acid], the pIC50 is 6.46.

Regarding `Cc1c(CCC(=O)O)cccc1NC(=O)C(c1ccc(-c2cncc(Cl)c2)cc1)C1CCCCC1` (racemic) [Example 65, (R/S) 3-[3-({[4-(5-Chloropyridin-3-yl)phenyl](cyclohexyl)acetyl}amino)-2-methylphenyl]propanoic acid], the pIC50 is 6.71. `Cc1c(CCC(=O)O)cccc1NC(=O)C(c1ccc(-c2cncc(C(F)(F)F)c2)cc1)C1CCCCC1` (racemic) [Example 66, (R/S) 3-{3-[(Cyclohexyl{4-[5-(trifluoromethyl)pyridin-3-yl]phenyl}acetyl)amino]-2-methylphenyl}propanoic acid]: the pIC50 is 7.27. The value for `CCOc1cncc(-c2ccc(C(C(=O)Nc3cccc(CCC(=O)O)c3C)C3CCCCC3)cc2)c1` (racemic) [Example 67, (R/S) 3-[3-({Cyclohexyl[4-(5-ethoxypyridin-3-yl)phenyl]acetyl}amino)-2-methylphenyl]propanoic acid] was 6.48; that for `CCC(CC(=O)O)c1cccc(NC(=O)C(c2ccc(-c3cncc(C)c3)cc2)C2CCCC2)c1C` (racemic) [Example 104, (3R/S)-3-[3-({(2RS)-2-Cyclopentyl-2-[4-(5-methylpyridin-3-yl)phenyl]acetyl}amino)-2-methylphenyl]pentanoic acid] was 7.02. To `Cc1c(CCC(=O)O)cccc1NC(=O)C(c1ccc(-c2cncc(C(F)(F)F)c2)cc1Cl)C1CCCC1` (racemic) [Example 161, (R/S) 3-(3-{[{2-chloro-4-[5-(trifluoromethyl)pyridin-3-yl]phenyl}(cyclopentyl)acetyl]amino}-2-methylphenyl)propanoic acid] belongs 6.56; to `Cc1c(CCC(=O)O)cc(F)cc1NC(=O)C(c1ccc(-c2cncc(C(F)(F)F)c2)cc1)C1CCCC1` (racemic) [Example 167, (R/S) 3-{3-[(cyclopentyl{4-[5-(trifluoromethyl)pyridin-3-yl]phenyl}acetyl)amino]-5-fluoro-2-methylphenyl}propanoic acid], 6.53; to `Cc1c(CCC(=O)O)cc(F)cc1NC(=O)C(c1ccc(-c2cncc(Cl)c2)cc1)C1CCCC1` (racemic) [Example 168, (R/S) 3-[3-({[4-(5-chloropyridin-3-yl)phenyl](cyclopentyl)acetyl}amino)-5-fluoro-2-methylphenyl]propanoic acid], 5.92. As to `Cc1ncc(-c2ccc(C(C(=O)Nc3cc(F)cc(CCC(=O)O)c3C)C3CCCC3)cc2)cc1Cl` (racemic) [Example 169, (R/S) 3-[3-({[4-(5-chloro-6-methylpyridin-3-yl)phenyl](cyclopentyl)acetyl}amino)-5-fluoro-2-methylphenyl]propanoic acid], the pIC50 was 6.60. On to `CCOc1cncc(-c2ccc(C(C(=O)Nc3cc(F)cc(CCC(=O)O)c3C)C3CCCC3)cc2)c1` (racemic) [Example 170, (R/S) 3-[3-({[4-(5-ethoxypyridin-3-yl)phenyl](cyclopentyl)acetyl}amino)-5-fluoro-2-methylphenyl]propanoic acid], for which the pIC50 was 6.24.

As for `Cc1c(NCC(=O)O)cccc1NC(=O)C(c1ccc(-c2cncc(C(F)(F)F)c2)cc1)C1CCCC1` (racemic) [Example 171, (R/S) N-{3-[(cyclopentyl{4-[5-(trifluoromethyl)pyridin-3-yl]phenyl}acetyl)amino]-2-methylphenyl}glycine], the pIC50 is 6.50. Turning to `Cc1cc(C(C(=O)Nc2cccc(CCC(=O)O)c2C)C2CCCC2)c(Cl)cc1-c1cncc(Cl)c1` (racemic) [Example 172, (R/S) 3-[3-({[2-chloro-4-(5-chloropyridin-3-yl)-5-methylphenyl](cyclopentyl)acetyl}amino)-2-methylphenyl]propanoic acid], the pIC50 is 5.73.

As to `Cc1cc(C(C(=O)Nc2cccc(CCC(=O)O)c2C)C2CCCC2)c(Cl)cc1-c1cncc(C(F)(F)F)c1` (racemic) [Example 173, (R/S) 3-(3-{[{2-chloro-5-methyl-4-[5-(trifluoromethyl)pyridin-3-yl]phenyl}(cyclopentyl)acetyl]amino}-2-methylphenyl)propanoic acid], the pIC50 was 5.91.

On to `Cc1cc(C(C(=O)Nc2cccc(CCC(=O)O)c2C)C2CCCC2)c(Cl)cc1-c1cnc(C)c(Cl)c1` (racemic) [Example 174, (R/S) 3-[3-({[2-chloro-4-(5-chloro-6-methylpyridin-3-yl)-5-methylphenyl](cyclopentyl)acetyl}amino)-2-methylphenyl]propanoic acid], for which the pIC50 is 6.35.

Broadly, the pIC50 is −log10 of the IC50, conventionally taken in molar units.

Values taken from patent US10172814B2, “Substituted pyridyl-cycloalkyl-carboxylic acids, compositions containing them and medical uses thereof” (BAYER PHARMA AKTIENGESELLSCHAFT, priority 2014, dated 2019).
